Where two headings read alike, the source gives them in different places.
Legend:
5-HT1A receptor = target: T1, 5-HT1A receptor (Rattus norvegicus, UniProt P19327); experiment: biochemical; assay type: binding; parameters: 47: 529-540 (1986); from tissue; host or cells: brain tissue, inferred from the cited method (rat frontal cortex)
T1 sequence (P19327 1-422): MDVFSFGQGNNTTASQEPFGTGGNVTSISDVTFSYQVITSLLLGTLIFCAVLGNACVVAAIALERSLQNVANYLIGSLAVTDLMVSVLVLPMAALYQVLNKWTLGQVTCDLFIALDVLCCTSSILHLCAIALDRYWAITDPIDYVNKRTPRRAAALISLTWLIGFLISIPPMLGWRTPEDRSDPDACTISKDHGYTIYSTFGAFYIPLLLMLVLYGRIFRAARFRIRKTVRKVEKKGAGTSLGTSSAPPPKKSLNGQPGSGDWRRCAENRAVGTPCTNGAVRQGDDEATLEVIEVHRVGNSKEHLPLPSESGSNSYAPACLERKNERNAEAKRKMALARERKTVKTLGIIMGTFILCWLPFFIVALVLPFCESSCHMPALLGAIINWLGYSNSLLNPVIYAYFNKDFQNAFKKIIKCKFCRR
Description: Further sigma receptor binding assays against [^3 H]DTG and 5HT-1A binding assays were conducted according to the procedure outlined in the previous examples.

sigma-2 binding site = target: T2, sigma-2 binding site (Cavia porcellus, UniProt H0V073); experiment: biochemical; parameters: species or system guinea pig
T2 construct: Guinea pig whole membrane preparations (P2 microsomal fraction); from tissue; host or cells: guinea pig membranes (P2 microsomal fraction), as described by Weber et al; brain inferred from the sister test b489
T2 sequence (H0V073 1-176): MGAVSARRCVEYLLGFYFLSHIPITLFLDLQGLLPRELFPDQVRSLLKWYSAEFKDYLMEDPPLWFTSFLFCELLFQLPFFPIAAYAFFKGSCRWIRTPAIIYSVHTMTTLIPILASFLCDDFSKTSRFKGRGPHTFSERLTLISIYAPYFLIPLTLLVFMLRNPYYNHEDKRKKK
Description: For the standard equilibrium assay, the mixtures were incubated for 30 min. at room temperature, then filtered and the radioactivity determined as described above.

PCP receptor = PCP receptor binding, ^3 H-MK-801; parameters: species or system rat; settings: Table 4
Description: PCP receptor binding assays against ^3 H-MK-801 were conducted as described by Keana et al., Proc. Natl. Acad. Sci (USA) 86: 5631-5635 (1989); Keana et al., Life Sciences 43: 965-973 (1988). For (+) ^3 H-MK-801 binding, 1 nM of radioligand was incubated with about 100 ug of thawed rat brain membrane protein for 4 hr at room temperature. The assays were carried out in 5 mM Tris/acetate and were stopped by rapid filtration through Whatman GF/B or Schleicher & Schuell no. 32 glass fiber filters (presoaked in 0.05% polyethylenamine).

sigma receptor = experiment: Sigma receptor binding, [^3 H]DTG, brain membranes (both sigma-1 and sigma-2 sites); parameters: species or system guinea pig; settings: [^3 H]DTG; for IC50: Table 6
sigma-1 binding site = target: T3, sigma-1 binding site (Cavia porcellus, UniProt Q60492); experiment: biochemical; parameters: species or system guinea pig; settings: for Ki / S1/S2 Ratio: Table 10; for Ki: read-out: SIGMA-1 KI vs. 3H-PENTAZOCINE MEAN; for S1/S2 Ratio: sigma-1/sigma-2
T3 construct: Guinea pig whole membrane preparations (P2 microsomal fraction); from tissue; host or cells: guinea pig membranes (P2 microsomal fraction), as described by Weber et al; brain inferred from the sister test b489
Description: [^3 H]DTG was purchased from DuPont/NEN.
The radioactivity on the filters was determined by scintillation spectrometry at an efficiency of about 50% using Cytoscint (ICN) scintillation fluid.

[1] = Table 10, read-out: SIGMA-2 KI vs. 3H-DTG + PENTAZOCINE MEAN
[2] = Table 6, read-out: 5HT-1A (nM) MEAN

T3 sequence (Q60492 whole entry): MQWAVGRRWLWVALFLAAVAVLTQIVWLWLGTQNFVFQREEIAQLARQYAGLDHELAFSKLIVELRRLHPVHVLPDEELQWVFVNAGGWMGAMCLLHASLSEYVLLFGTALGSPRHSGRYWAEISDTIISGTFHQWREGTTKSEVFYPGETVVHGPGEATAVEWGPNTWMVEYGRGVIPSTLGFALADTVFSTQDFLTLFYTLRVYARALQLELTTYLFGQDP

Row | Structure (SMILES) | IC50 (5-HT1A receptor; Table 5, read-out: 5-HT1A IC50) | IC50 (PCP receptor) | Ratio 5-HT1A /σ (5-HT1A receptor; Table 5) | also measured
1 | CC(Cc1cccc2ccccc12)NCCCc1ccccc1 (racemic) [Compound 16, (±) N-[1-(1'-Naphthyl)-2-propyl]-3-phenylpropylamine] | 44.8 nM | > 10000 nM | – | Ki (sigma-2 binding site; Example 9, read-out: sigma-2 binding affinity): 150 nM; Ki (sigma-2 binding site; [1]): 152 nM
2 | CC(Cc1ccc2ccccc2c1)NCCCc1ccccc1 (racemic) [Compound 17, (±) N-[1-(2'-Naphthyl)-2-propyl]-3-phenylpropylamine] | 87.8 nM | > 10000 nM | – | Ki (sigma-2 binding site; [1]): 222 nM
3 | CC(Cc1ccc(Br)cc1)NCCCc1ccccc1 (racemic) [Compound 21, (±) N-[1-(4'-Bromophenyl)-2-propyl]-3-phenylpropylamine] | 195 nM | > 10000 nM | – | Ki (sigma-2 binding site; [1]): 39.1 nM; IC50 (sigma-2 binding site; Table 17, read-out: IC50 (nM) at sigma-2): 39 nM
4 | CN[C@H](C)Cc1ccccc1 [Compound 3] | 1780 nM | > 10000 nM | – | –
5 | CCN[C@H](C)Cc1ccccc1 [Compound 4] | 4050 nM | > 10000 nM | 5.9 | –
6 | CCCN[C@H](C)Cc1ccccc1 [Compound 5] | 1500 nM | > 10000 nM | .88 | –
7 | C[C@H](Cc1ccccc1)NCc1ccccc1 [Compound 6] | 3780 nM | > 10000 nM | 31 | –
8 | C[C@H](Cc1ccccc1)NCCOc1ccccc1 [Compound 8] | 43.6 nM | > 10000 nM | .92 | change in sigma receptor affinity vs. analog (sigma receptor; Examples 5 and 6): about 7 fold
9 | C[C@H](Cc1ccccc1)NCCC(=O)c1ccccc1 [Compound 9] | 122 nM | > 10000 nM | 2 | –
10 | CC(NCCCc1ccccc1)C(=O)c1ccccc1 (stereo not drawn) [Compound 13] | 288 nM | > 10000 nM | 2 | –
11 | c1ccc(CCCNC2Cc3ccccc3C2)cc1 [Compound 14] | 154 nM | > 10000 nM | 5.4 | –
12 | CC(Cc1ccc2ccccc2c1)NCCCc1ccccc1 (stereo not drawn) [Compound 18, N-(3-phenylpropyl)-1-(2-naphthyl)-2-propylamine] | 588 nM | > 10000 nM | – | Ki (sigma-2 binding site; [1]): 15.1 nM
13 | CC(Cc1ccccc1)NCC1CC1 (stereo not drawn) [Compound 24] | 956 nM | > 10000 nM | 1.4 | –
14 | C[C@H](Cc1ccccc1)NCC#Cc1ccccc1 [Compound 25] | 753 nM | > 10000 nM | 7.3 | –
15 | C[C@H](N[C@@H](C)Cc1ccccc1)c1ccccc1 [Compound 26] | 10000 nM | > 10000 nM | 3.5 | –
16 | C[C@@H](Cc1ccccc1)NCCc1ccccc1 [Compound 27] | 6510 nM | > 10000 nM | 200 | –
17 | C[C@@H](N)Cc1ccccc1 [Compound 28] | – | > 10000 nM | – | –

Row | Structure (SMILES) | IC50 (5-HT1A receptor; Table 5, read-out: 5-HT1A IC50) | IC50 (PCP receptor) | Ratio 5-HT1A /σ (5-HT1A receptor; Table 5) | also measured
18 | C[C@@H](N)Cc1ccc(I)cc1 [Compound 29] | 15500 nM | > 10000 nM | 3.1 | –
19 | C[C@@H](N)Cc1ccc([N+](=O)[O-])cc1 [Compound 30] | 55000 nM | > 10000 nM | 2.6 | –
20 | c1ccc(CCCNC2CCc3ccccc3C2)cc1 (stereo not drawn) [Compound 31] | 19.3 nM | > 10000 nM | .92 | –
21 | Clc1cccc(N2CCN(CCCc3ccccc3)CC2)c1 [Compound 33] | 51.6 nM | > 10000 nM | 2.6 | –
22 | c1ccc(CN2CCOC(c3ccccc3)C2)cc1 (stereo not drawn) [Compound 35] | 10400 nM | > 10000 nM | 40 | –
23 | FC(F)(F)c1cccc(N2CCN(CCc3ccccc3)CC2)c1 [Compound 37] | 20.3 nM | > 10000 nM | 2.6 | –
24 | Clc1ccc(C2=CCN(CCCCc3ccccc3)CC2)cc1 [Compound 38] | 107 nM | > 10000 nM | 25 | –
25 | c1ccc(CCCN2CCC(c3ccccc3)CC2)cc1 [Compound 39] | 89.6 nM | > 10000 nM | 75 | –
26 | C[C@@H](Cc1ccccc1)NCCCc1ccc2ccccc2c1 [Compound 42] | 572 nM | > 10000 nM | 110 | –
27 | C[C@@H](Cc1ccccc1)NCCCc1ccccc1 [Compound 43, N-(3-phenylpropyl)-1-pheny1-2-propylamine] | 1110 nM | > 10000 nM | – | 5-HT1A affinity relative to antipode (5-HT1A receptor; S(+) isomer of cmp. #1): only one-tenth the affinity of its antipode; Ki (sigma-2 binding site; [1]): 37.5 nM
28 | c1ccc(CCCN2CCN(c3ccccc3)CC2)cc1 [Compound 46] | 21.5 nM | > 10000 nM | 3 | –
29 | FC(F)(F)c1cccc(N2CCN(CCCCc3ccccc3)CC2)c1 [Compound 47] | 9.23 nM | > 10000 nM | 1.6 | –
30 | c1ccc(CCCCN2CCN(c3ccccc3)CC2)cc1 [Compound 48] | 6.3 nM | > 10000 nM | 2.3 | –
31 | c1ccc(CCCN2CCN(c3ccc4ccccc4c3)CC2)cc1 [Compound 50] | 282 nM | > 10000 nM | 94 | –
32 | C[C@@H](Cc1ccccc1)N(C)CCCc1ccccc1 [Compound 113, N-Methyl-N-(3-phenylpropyl)-1-phenylisopropylamine] | – | – | – | IC50 (5-HT1A receptor; [2]): 2150 nM; Ki (sigma-2 binding site; [1]): 4.87 nM; IC50 (sigma receptor): 2.22 nM; Ki (sigma-1 binding site): 0.51 nM; S1/S2 Ratio (sigma-1 binding site): 0.105; IC50 ratio of sigma-1/sigma-2 (sigma-1 selective compounds) (sigma-1 binding site; less than about 0.1, see Table 10): less than 0.1
33 | c1ccc(CCCCCN2CCC(Cc3ccccc3)CC2)cc1 [Compound 117, N-(5-phenylpentyl)-4-benzylpiperidine] | – | – | – | IC50 (5-HT1A receptor; [2]): 781 nM; Ki (sigma-2 binding site; [1]): 2.78 nM; IC50 (sigma receptor): 2.11 nM; Ki (sigma-1 binding site): 0.58 nM; S1/S2 Ratio (sigma-1 binding site): 0.210
